Each structure is given as a SMILES string. Values joined by “and” are separate entries in the source; they are usually repeats but may differ in a detail not shown here. Equal values may be shown once. Where only a bound is given, the exact number is not on record here.

This experiment concerns 648629-189-R-J1-PDC spheroids with HUVEC/MSC, viability. The experiment is described as follows: Anticancer human tumor 648629-189-R-J1-PDC patient-derived bladder carcinoma cell line growth inhibition [PI3K]. The note with it: for viability, T/C: stronger effect = lower value. The procedure, abridged: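 High-throughput combination screen: PI3K inhibitors crossed with targeted small molecules on complex spheroids of tumor cells, HUVEC and MSCs at 37 degrees C, 5% CO2. Top concentration was at or near clinical Cmax (otherwise 10 microM), with half-log decrements.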

Where [1] appears, read: curve of first compound, second compound 0.0316 µM.
[2] abbreviates: curve of first compound, second compound 0.1 µM.
[3] abbreviates: curve of first compound, second compound 0.316 µM.
Setting [4] is: curve of first compound, second compound 1 µM.
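Note: spheroids exposed to agents for seven days before reading.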
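Throughout, for viability, T/C: percent of vehicle control luminescence where 100% = DMSO treated spheroids.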

`CNC(=O)c1ccc(N2C(=S)N(c3ccc(C#N)c(C(F)(F)F)c3)C(=O)C2(C)C)cc1F` + CC(Nc1ccc2c(c1)OCCn1cc(N3C(=O)OCC3C(F)F)nc1-2)C(N)=O: the concentration for half-maximal inhibition (IC50) by setting is: (curve of first compound, second compound 0.00316 µM) over 10 µM; (curve of first compound, second compound 0.01 µM) over 10 µM; under setting [1], over 10 µM; under setting [2], over 10 µM; under setting [3], over 10 µM; under setting [4], over 10 µM. For the same compound, the viability, T/C runs as follows: (second compound 0.00316 µM, first compound 0.0316 µM) 107%; (second compound 0.00316 µM, first compound 0.1 µM) 96.5%; (second compound 0.00316 µM, first compound 0.316 µM) 107%; (second compound 0.00316 µM, first compound 1 µM) 97.6%; (second compound 0.00316 µM, first compound 3.16 µM) 110%; (second compound 0.00316 µM, first compound 10 µM) 83.4%. Further, the viability, T/C was 99.6% (second compound 0.01 µM, first compound 0.0316 µM); 109% (second compound 0.01 µM, first compound 0.1 µM); 97.2% (second compound 0.01 µM, first compound 0.316 µM); 98.1% (second compound 0.01 µM, first compound 1 µM); 94.8% (second compound 0.01 µM, first compound 3.16 µM); 87.1% (second compound 0.01 µM, first compound 10 µM). Also, the viability, T/C was 103% (second compound 0.0316 µM, first compound 0.0316 µM); 107% (second compound 0.0316 µM, first compound 0.1 µM); 102% (second compound 0.0316 µM, first compound 0.316 µM); 101% (second compound 0.0316 µM, first compound 1 µM); 90.5% (second compound 0.0316 µM, first compound 3.16 µM); 78.5% (second compound 0.0316 µM, first compound 10 µM). For the same compound, the viability, T/C (second compound 0.1 µM, first compound 0.0316 µM) is 93%; the viability, T/C (second compound 0.1 µM, first compound 0.1 µM) is 94.8%; the viability, T/C (second compound 0.1 µM, first compound 0.316 µM) is 102%; the viability, T/C (second compound 0.1 µM, first compound 1 µM) is 102%; the viability, T/C (second compound 0.1 µM, first compound 3.16 µM) was 88%; the viability, T/C (second compound 0.1 µM, first compound 10 µM) is 79.2%. Besides, the viability, T/C (second compound 0.316 µM, first compound 0.0316 µM) is 83.4%; the viability, T/C (second compound 0.316 µM, first compound 0.1 µM) was 79.1%; the viability, T/C (second compound 0.316 µM, first compound 0.316 µM) was 93%; the viability, T/C (second compound 0.316 µM, first compound 1 µM) is 75.5%; the viability, T/C (second compound 0.316 µM, first compound 3.16 µM) is 84.3%; the viability, T/C (second compound 0.316 µM, first compound 10 µM) was 68%. In addition, the viability, T/C reads like this: (second compound 1 µM, first compound 0.0316 µM) 69.7%; (second compound 1 µM, first compound 0.1 µM) 67.5%; (second compound 1 µM, first compound 0.316 µM) 72.1%; (second compound 1 µM, first compound 1 µM) 63.7%; (second compound 1 µM, first compound 3.16 µM) 75.4%; (second compound 1 µM, first compound 10 µM) 68%.
With `Cn1nccc1Nc1nccc(-c2ccn(C(CO)c3ccc(Cl)c(F)c3)c(=O)c2)n1` (stereo unspecified), the viability, T/C is 107% [middle of 4 runs] (compound 0.0316 µM); 104% [middle of 4 runs] (compound 0.1 µM); 112% [middle of 4 runs] (compound 0.316 µM); 110% [middle of 4 runs] (compound 1 µM); 110% [middle of 4 runs] (compound 3.16 µM); 81.2% [middle of 4 runs] (compound 10 µM). Under “curve of compound”, the IC50 is over 10 µM.
For the compound `Cn1cnc2c(F)c(Nc3ccc(Br)cc3Cl)c(C(=O)NOCCO)cc21` + Cc1nc(NC(=O)N2CCCC2C(N)=O)sc1-c1ccnc(C(C)(C)C(F)(F)F)c1, the IC50 is over 3 µM under setting [1]; over 3 µM under setting [2]; over 3 µM under setting [3]; over 3 µM under setting [4]; over 3 µM (curve of first compound, second compound 3.16 µM); under 0.00949 µM (curve of first compound, second compound 10 µM). The viability, T/C is 94.3% (second compound 0.0316 µM, first compound 0.00949 µM); 95.2% (second compound 0.0316 µM, first compound 0.03 µM); 99% (second compound 0.0316 µM, first compound 0.0949 µM); 90% (second compound 0.0316 µM, first compound 0.3 µM); 93% (second compound 0.0316 µM, first compound 0.949 µM); 70.5% (second compound 0.0316 µM, first compound 3 µM). Further, the viability, T/C is, setting by setting: (second compound 0.1 µM, first compound 0.00949 µM) 92.8%; (second compound 0.1 µM, first compound 0.03 µM) 90.7%; (second compound 0.1 µM, first compound 0.0949 µM) 98.1%; (second compound 0.1 µM, first compound 0.3 µM) 95.4%; (second compound 0.1 µM, first compound 0.949 µM) 86.2%; (second compound 0.1 µM, first compound 3 µM) 75.8%. Moreover, the viability, T/C (second compound 0.316 µM, first compound 0.00949 µM) is 94.6%; the viability, T/C (second compound 0.316 µM, first compound 0.03 µM) was 93.8%; the viability, T/C (second compound 0.316 µM, first compound 0.0949 µM) was 77.2%; the viability, T/C (second compound 0.316 µM, first compound 0.3 µM) is 85.2%; the viability, T/C (second compound 0.316 µM, first compound 0.949 µM) is 81.7%; the viability, T/C (second compound 0.316 µM, first compound 3 µM) is 72.4%. The viability, T/C runs as follows: (second compound 1 µM, first compound 0.00949 µM) 80.7%; (second compound 1 µM, first compound 0.03 µM) 78.2%; (second compound 1 µM, first compound 0.0949 µM) 71.3%; (second compound 1 µM, first compound 0.3 µM) 75.5%; (second compound 1 µM, first compound 0.949 µM) 72.9%; (second compound 1 µM, first compound 3 µM) 64.2%. For the same compound, the viability, T/C runs as follows: (second compound 3.16 µM, first compound 0.00949 µM) 54.6%; (second compound 3.16 µM, first compound 0.03 µM) 60.1%; (second compound 3.16 µM, first compound 0.0949 µM) 59.2%; (second compound 3.16 µM, first compound 0.3 µM) 52.1%; (second compound 3.16 µM, first compound 0.949 µM) 57.1%; (second compound 3.16 µM, first compound 3 µM) 52.7%. The viability, T/C by setting is: (second compound 10 µM, first compound 0.00949 µM) 39.5%; (second compound 10 µM, first compound 0.03 µM) 34.4%; (second compound 10 µM, first compound 0.0949 µM) 34.7%; (second compound 10 µM, first compound 0.3 µM) 40.2%; (second compound 10 µM, first compound 0.949 µM) 44.8%; (second compound 10 µM, first compound 3 µM) 38.1%.
Turning to `Cn1cnc2c(F)c(Nc3ccc(Br)cc3Cl)c(C(=O)NOCCO)cc21`, the viability, T/C (compound 0.00949 µM) was 108% and 98.8% (2×) and 95.3%; the viability, T/C (compound 0.03 µM) was 96.8% [middle of 4 runs]; the viability, T/C (compound 0.0949 µM) was 99.2% [middle of 4 runs]; the viability, T/C (compound 0.3 µM) was 94.5% [middle of 4 runs]; the viability, T/C (compound 0.949 µM) is 103% [middle of 4 runs]; the viability, T/C (compound 3 µM) was 84.9% [middle of 4 runs]. For the setting “curve of compound”, the IC50 was over 3 µM.
Regarding `CNC(=O)c1ccc(N2C(=S)N(c3ccc(C#N)c(C(F)(F)F)c3)C(=O)C2(C)C)cc1F`, the viability, T/C runs as follows: (compound 0.0316 µM) 107% (2×) and 95.9% and 101%; (compound 0.1 µM) 98.2% [middle of 4 runs]; (compound 0.316 µM) 107% [middle of 4 runs]; (compound 1 µM) 105% [middle of 4 runs]; (compound 3.16 µM) 92.6% and 104% (2×) and 108%; (compound 10 µM) 91% [middle of 4 runs]. In addition, for the setting “curve of compound”, the IC50 was over 10 µM.
Turning to `CC1(C)CCC(CN2CCN(c3ccc(C(=O)NS(=O)(=O)c4ccc(NCC5CCOCC5)c([N+](=O)[O-])c4)c(Oc4cnc5[nH]ccc5c4)c3)CC2)=C(c2ccc(Cl)cc2)C1`, the viability, T/C by setting is: (compound 0.0316 µM) 102% (2×) and 94.5% and 111%; (compound 0.1 µM) 101% (2×) and 96.3% and 98.1%; (compound 0.316 µM) 110% [middle of 4 runs]; (compound 1 µM) 98.5% [middle of 4 runs]; (compound 3.16 µM) 89% [middle of 4 runs]. The concentration for half-maximal inhibition (IC50) (curve of compound) is > 10 µM and 4.88 µM and 5.19 µM.

The values above are taken from PubChem BioAssay AID1963974 (Molecular Pharmacology Branch, DTP, NCI, 2024).
